Measured values published in the NIST ThermoML archive (doi:10.1016/j.jct.2017.05.001).

Assay: wn = mass fraction of the nth substance listed
Settings: Liquid; for mass density: Vibrating tube method

CN(C)CCO [2-(N,N-dimethylamino)ethanol] + O
viscosity [mPa·s]
Settings | 293.15 K | 313.15 K | 333.15 K
100 kPa, Concentric cylinders viscometry, w1 = 0.1 | 1.587 | 0.947 | 0.623
100 kPa, Concentric cylinders viscometry, w1 = 0.2 | 2.614 | 1.408 | 0.888
100 kPa, Concentric cylinders viscometry, w1 = 0.3 | 4.334 | 2.102 | 1.226
100 kPa, Concentric cylinders viscometry, w1 = 0.4 | 6.754 | 3.068 | 1.671
100 kPa, Falling or rolling sphere viscometry, w1 = 0.1005 | 1.559 | 0.9401 | 0.6336
100 kPa, Falling or rolling sphere viscometry, w1 = 0.202 | 2.533 | 1.368 | 0.8725
100 kPa, Falling or rolling sphere viscometry, w1 = 0.3005 | 4.211 | 2.042 | 1.217
100 kPa, Falling or rolling sphere viscometry, w1 = 0.3995 | 6.587 | 2.99 | 1.651
5000 kPa, Falling or rolling sphere viscometry, w1 = 0.1005 | 1.564 | 0.9415 | 0.6341
5000 kPa, Falling or rolling sphere viscometry, w1 = 0.202 | 2.547 | 1.374 | 0.877
5000 kPa, Falling or rolling sphere viscometry, w1 = 0.3005 | 4.223 | 2.063 | 1.223
5000 kPa, Falling or rolling sphere viscometry, w1 = 0.3995 | 6.535 | 3.031 | 1.669
10000 kPa, Falling or rolling sphere viscometry, w1 = 0.1005 | 1.564 | 0.9437 | 0.6372
10000 kPa, Falling or rolling sphere viscometry, w1 = 0.202 | 2.557 | 1.382 | 0.8862
10000 kPa, Falling or rolling sphere viscometry, w1 = 0.3005 | 4.258 | 2.083 | 1.239
10000 kPa, Falling or rolling sphere viscometry, w1 = 0.3995 | 6.564 | 3.075 | 1.695
15000 kPa, Falling or rolling sphere viscometry, w1 = 0.1005 | 1.563 | 0.9453 | 0.6403
15000 kPa, Falling or rolling sphere viscometry, w1 = 0.202 | 2.566 | 1.392 | 0.8907
15000 kPa, Falling or rolling sphere viscometry, w1 = 0.3005 | 4.295 | 2.103 | 1.249
15000 kPa, Falling or rolling sphere viscometry, w1 = 0.3995 | 6.801 | 3.121 | 1.719
20000 kPa, Falling or rolling sphere viscometry, w1 = 0.1005 | 1.562 | 0.9476 | 0.6431
20000 kPa, Falling or rolling sphere viscometry, w1 = 0.202 | 2.574 | 1.395 | 0.897
20000 kPa, Falling or rolling sphere viscometry, w1 = 0.3005 | 4.33 | 2.121 | 1.26
20000 kPa, Falling or rolling sphere viscometry, w1 = 0.3995 | 6.863 | 3.164 | 1.742
25000 kPa, Falling or rolling sphere viscometry, w1 = 0.1005 | 1.561 | 0.9506 | 0.6461
25000 kPa, Falling or rolling sphere viscometry, w1 = 0.202 | 2.583 | 1.4 | 0.9026
25000 kPa, Falling or rolling sphere viscometry, w1 = 0.3005 | 4.374 | 2.142 | 1.274
25000 kPa, Falling or rolling sphere viscometry, w1 = 0.3995 | 6.822 | 3.209 | 1.765
30000 kPa, Falling or rolling sphere viscometry, w1 = 0.1005 | 1.564 | 0.9525 | 0.6477
30000 kPa, Falling or rolling sphere viscometry, w1 = 0.202 | 2.589 | 1.412 | 0.9063
30000 kPa, Falling or rolling sphere viscometry, w1 = 0.3005 | 4.405 | 2.161 | 1.283
30000 kPa, Falling or rolling sphere viscometry, w1 = 0.3995 | 7.027 | 3.253 | 1.789
40000 kPa, Falling or rolling sphere viscometry, w1 = 0.1005 | 1.564 | 0.957 | 0.6532
40000 kPa, Falling or rolling sphere viscometry, w1 = 0.202 | 2.605 | 1.423 | 0.9178
40000 kPa, Falling or rolling sphere viscometry, w1 = 0.3005 | 4.464 | 2.197 | 1.305
40000 kPa, Falling or rolling sphere viscometry, w1 = 0.3995 | 6.883 | 3.342 | 1.835
60000 kPa, Falling or rolling sphere viscometry, w1 = 0.1005 | 1.562 | 0.9672 | 0.6631
60000 kPa, Falling or rolling sphere viscometry, w1 = 0.202 | 2.637 | 1.45 | 0.9397
60000 kPa, Falling or rolling sphere viscometry, w1 = 0.3005 | 4.588 | 2.273 | 1.353
60000 kPa, Falling or rolling sphere viscometry, w1 = 0.3995 | 7.591 | 3.519 | 1.927
80000 kPa, Falling or rolling sphere viscometry, w1 = 0.1005 | 1.57 | 0.9775 | 0.6729
80000 kPa, Falling or rolling sphere viscometry, w1 = 0.202 | 2.672 | 1.479 | 0.9613
80000 kPa, Falling or rolling sphere viscometry, w1 = 0.3005 | 4.73 | 2.348 | 1.396
80000 kPa, Falling or rolling sphere viscometry, w1 = 0.3995 | – | 3.698 | 2.019
100000 kPa, Falling or rolling sphere viscometry, w1 = 0.1005 | 1.577 | 0.9881 | 0.685
100000 kPa, Falling or rolling sphere viscometry, w1 = 0.202 | 2.706 | 1.508 | 0.9835
100000 kPa, Falling or rolling sphere viscometry, w1 = 0.3005 | 4.861 | 2.424 | 1.442
100000 kPa, Falling or rolling sphere viscometry, w1 = 0.3995 | – | 3.881 | 2.113

mass density [kg/m3]
Settings | w1 = 0.1005 | w1 = 0.202 | w1 = 0.3005 | w1 = 0.3995
293.15 K, 100 kPa | 994.5 | 992.6 | 990.6 | 986.6
293.15 K, 500 kPa | 994.7 | 992.7 | 990.7 | 986.7
293.15 K, 1000 kPa | 994.8 | 992.9 | 990.9 | 986.9
293.15 K, 2000 kPa | 995.3 | 993.3 | 991.3 | 987.3
293.15 K, 5000 kPa | 996.5 | 994.4 | 992.4 | 988.4
293.15 K, 10000 kPa | 998.5 | 996.3 | 994.2 | 990.3
293.15 K, 15000 kPa | 1000.5 | 998.2 | 996 | 992.1
293.15 K, 20000 kPa | 1002.6 | 1000 | 997.8 | 994
293.15 K, 30000 kPa | 1006.6 | 1003.7 | 1001.4 | 997.5
293.15 K, 40000 kPa | 1010.5 | 1007.4 | 1004.9 | 1001
293.15 K, 50000 kPa | 1014.3 | 1010.8 | 1008.2 | 1004.4
293.15 K, 60000 kPa | 1018.1 | 1014.3 | 1011.6 | 1007.7
293.15 K, 70000 kPa | 1021.8 | 1017.9 | 1014.9 | 1011
293.15 K, 80000 kPa | 1025.3 | 1021.1 | 1018 | 1014.1
293.15 K, 90000 kPa | 1029 | 1024.4 | 1021.2 | 1017.3
293.15 K, 100000 kPa | 1032.5 | 1027.7 | 1024.3 | 1020.4
293.15 K, 110000 kPa | 1035.9 | 1030.8 | 1027.2 | 1023.2
293.15 K, 120000 kPa | 1039.3 | 1033.9 | 1030.2 | 1026.3
293.15 K, 130000 kPa | 1042.7 | 1037.2 | 1033.3 | 1029.2
293.15 K, 140000 kPa | 1045.7 | 1040.1 | 1036 | 1031.9
313.15 K, 100 kPa | 987.4 | 983.2 | 978.8 | 972.7
313.15 K, 500 kPa | 987.6 | 983.4 | 979 | 972.9
313.15 K, 1000 kPa | 987.8 | 983.6 | 979.2 | 973.1
313.15 K, 2000 kPa | 988.3 | 984 | 979.6 | 973.5
313.15 K, 5000 kPa | 989.5 | 985.2 | 980.8 | 974.7
313.15 K, 10000 kPa | 991.5 | 987.2 | 982.7 | 976.7
313.15 K, 15000 kPa | 993.4 | 989.1 | 984.6 | 978.6
313.15 K, 20000 kPa | 995.4 | 990.9 | 986.5 | 980.6
313.15 K, 30000 kPa | 999.4 | 994.8 | 990.3 | 984.4
313.15 K, 40000 kPa | 1003.4 | 998.6 | 994 | 988.2
313.15 K, 50000 kPa | 1007 | 1002.1 | 997.5 | 991.7
313.15 K, 60000 kPa | 1010.8 | 1005.6 | 1001 | 995.3
313.15 K, 70000 kPa | 1014.5 | 1009.1 | 1004.4 | 998.7
313.15 K, 80000 kPa | 1018 | 1012.5 | 1007.6 | 1002
313.15 K, 90000 kPa | 1021.4 | 1015.7 | 1010.9 | 1005.3
313.15 K, 100000 kPa | 1024.9 | 1019.1 | 1014.1 | 1008.5
313.15 K, 110000 kPa | 1028.3 | 1022.3 | 1017.3 | 1011.7
313.15 K, 120000 kPa | 1031.6 | 1025.6 | 1020.4 | 1014.7
313.15 K, 130000 kPa | 1035 | 1028.6 | 1023.4 | 1017.7
313.15 K, 140000 kPa | 1038.2 | 1031.7 | 1026.4 | 1020.7
333.15 K, 100 kPa | 977.4 | 971.5 | 965.2 | 957.4
333.15 K, 500 kPa | 977.6 | 971.8 | 965.4 | 957.6
333.15 K, 1000 kPa | 977.8 | 972 | 965.6 | 957.9
333.15 K, 2000 kPa | 978.2 | 972.4 | 966.1 | 958.3
333.15 K, 5000 kPa | 979.5 | 973.7 | 967.3 | 959.6
333.15 K, 10000 kPa | 981.5 | 975.7 | 969.5 | 961.8
333.15 K, 15000 kPa | 983.6 | 977.7 | 971.5 | 963.9
333.15 K, 20000 kPa | 985.6 | 979.7 | 973.5 | 966
333.15 K, 30000 kPa | 989.7 | 983.7 | 977.5 | 970.2
333.15 K, 40000 kPa | 993.7 | 987.7 | 981.5 | 974.2
333.15 K, 50000 kPa | 997.3 | 991.3 | 985.2 | 977.9
333.15 K, 60000 kPa | 1001.1 | 995 | 988.9 | 981.7
333.15 K, 70000 kPa | 1004.9 | 998.6 | 992.5 | 985.4
333.15 K, 80000 kPa | 1008.4 | 1002.1 | 996 | 988.9
333.15 K, 90000 kPa | 1012 | 1005.4 | 999.2 | 992.3
333.15 K, 100000 kPa | 1015.4 | 1008.9 | 1002.7 | 995.8
333.15 K, 110000 kPa | 1018.9 | 1012.2 | 1006 | 999
333.15 K, 120000 kPa | 1022.3 | 1015.5 | 1009.3 | 1002.4
333.15 K, 130000 kPa | 1025.5 | – | – | –
